Assay results published in patent US6991794B1, “Progenitor cell preservation factors and methods for and products of their use” (ImClone Systems Incorporated, priority 1997, dated 2006).

Assays:
[1] = single dose 150 mg/kg (Lerner and Harrison); cited from earlier work
[2] = murine 5-FU chemoprotection model; settings: 150 mg/kg intraperitoneally
Experimental: Administration of a second dose of 5-FU (also at 150 mg/kg) 3-7 days after the initial dose killed those stem cells and progenitors recruited into S-phase in response to the first treatment of 5-FU (Lerner and Harrison, supra).
Since FRIL and cytokines act on progenitors in the same concentration range (ng/ml), this pretreatment dose regimen was used to test whether Dl-FRIL can protect mice from 5-FU administered at 2 intervals in the first week: 5-FU (150 mg/kg) was injected at day 0 and then a second dose (also at 150 mg/kg) was injected either on day 3 (d0/3 dose interval) or day 5 (d0/5 dose interval).
Weight-matched BALB/c mice (10 mice/group) were injected intravenously with either with 0.2 mL of Dl-FRIL (500 mg/mL) or 0.2 mL of HBSS daily for 4 days. Two hours after the final treatment of Dl-FRIL, mice were injected intraperitoneally with 5-FU (150 mg/kg). Groups of mice received a second dose of 5-FU (150 mg/kg) at either day 3 or day 5.

[3] = molecular target: T1, Dl-FRIL (Lablab purpureus, UniProt Q9ZTA9); settings: Mo et al., Glycobiology 1999; cited from earlier work
T1 sequence (Q9ZTA9 9-272): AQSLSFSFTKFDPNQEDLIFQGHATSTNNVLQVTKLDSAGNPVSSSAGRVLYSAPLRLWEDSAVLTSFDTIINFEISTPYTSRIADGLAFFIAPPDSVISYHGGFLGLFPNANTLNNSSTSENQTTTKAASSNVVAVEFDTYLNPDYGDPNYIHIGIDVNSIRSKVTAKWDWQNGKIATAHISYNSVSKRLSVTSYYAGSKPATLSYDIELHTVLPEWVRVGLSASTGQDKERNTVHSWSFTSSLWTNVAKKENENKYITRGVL
T1 sequence (Q9ZTA9 125-272 limits assumed): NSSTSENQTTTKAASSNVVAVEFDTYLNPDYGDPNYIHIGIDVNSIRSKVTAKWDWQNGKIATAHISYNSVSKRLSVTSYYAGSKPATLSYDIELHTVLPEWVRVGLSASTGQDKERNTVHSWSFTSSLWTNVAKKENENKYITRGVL

[4] = system: untransfected 3T3 cells; assay: untransfected parent 3T3 control cells (XTT); assay type: cell-based; settings: Example 5 serum-free conditions
Experimental: Specifically, 3T3 cells cultured in tissue culture plates (Becton Dickinson Labware, Lincoln Park, N.J.) were removed from the plates by washing cells twice in Hank's buffered saline solution (HBSS; Gibco Laboratories, Grand Island, N.Y.). Non-enzymatic cell dissociation buffer (Gibco) was added for 15 minutes at room temperature. The resulting cells were washed in medium. FLT3 3T3 cells were cultured at a final concentration of 3,000 cells per well in a volume of 100 μL of serum-defined medium containing […] rhIL1-α, 10% AIMV (Gibco, Grand Island, N.Y.) and 90% Dulbecco's modification of Eagle's medium (DMEM; Gibco) in 96 well plates. […] Proliferation and cell survival was quantitated by addition of XTT (2, 3-bis[Methoxy-4-nitro-5sulfophenyl]-2H-tetrazolium-5 carboxanilide inner salt) (Diagnostic Chemicals Ltd, Charlottetown, Prince Edward Island, Canada), which is a […] cleaved by actively respiring cells (Roehm et al., J. Immunol. Methods 142: 257-265, 1991). Proliferation and cell survival was quantitated spectrophotometrically using a Vmax kinetic plate reader (Molecular Devices Corp., Mountain View, Calif.), and recorded as either relative activity (units/mL) or as specific activity (units/mg). One unit of biological activity was defined as the reciprocal dilution at which half-maximal stimulation of cells is detected. […]

[5] = molecular target: T2, murine extracellular domain of the Flt3 receptor fused to the transmembrane and intracellular domains of the human Fms (UniProt P07333+Q00342, A795S/A899S/C564L/C654D/C793H/C831G/D601N/D652H/D673E/D898N/DEL545-556/DEL576-597/DEL711-780/E609N/E612Q/E649S/E789R/E803A/E806A/E865D/F571P/F692T/F788L/F807S/G637D/G866C/H565Y/H671Q/H824N/I560L/I563L/I633L/I640L/I867V/I870V/INS558VACMSIMALLLL/INS573QVRWKII/INS599GNSYTFIDPTQLP/INS709AMLGPSLSPGQDPEGGVDYKNIHLEKKYVRRDSGFSSQGVDTYVEMRPVSTSSNDSFSEQDLD/K569Q/K650T/K800Q/K826H/K871Q/L602E/L684H/L690V/L783G/L815V/L840M/L863I/M626V/M665I/N627E/N784R/N900K/P896L/Q570K/Q641K/R572K/R624K/R708A/R848K/S619A/S634G/S639V/S653A/S685G/S706R/S809N/S841N/S844N/T636E/T667S/T787E/V561L/V616T/V638A/V785P/V811I/V822L/V828A/V846I/V889L/Y631F/Y689L/Y703F/Y796S); assay: mFlt3/Fms 3T3 biological screening assay (XTT); assay type: cell-based
T2 construct: consisting of the murine extracellular domain of the Flt3 receptor fused to the transmembrane and intracellular domains of the human Fms; expressed in transfected cells; host or cells: NIH 3T3 (mFlt3/Fms 3T3 cell line, provided by Dr. Ihor Lemischka)
T2 sequence (Q00342+P07333 with tags, fused parts or gaps Q00342:DEL545-556/Q00342:INS558VACMSIMALLLL/Q00342:I560L/Q00342:V561L/Q00342:I563L/Q00342:C564L/Q00342:H565Y/Q00342:K569Q/Q00342:Q570K/Q00342:F571P/Q00342:R572K/Q00342:INS573QVRWKII/Q00342:DEL576-597/Q00342:INS599GNSYTFIDPTQLP/Q00342:D601N/Q00342:L602E/Q00342:E609N/Q00342:E612Q/Q00342:V616T/Q00342:S619A/Q00342:R624K/Q00342:M626V/Q00342:N627E/Q00342:Y631F/Q00342:I633L/Q00342:S634G/Q00342:T636E/Q00342:G637D/Q00342:V638A/Q00342:S639V/Q00342:I640L/Q00342:Q641K/Q00342:E649S/Q00342:K650T/Q00342:D652H/Q00342:S653A/Q00342:C654D/Q00342:M665I/Q00342:T667S/Q00342:H671Q/Q00342:D673E/Q00342:L684H/Q00342:S685G/Q00342:Y689L/Q00342:L690V/Q00342:F692T/Q00342:Y703F/Q00342:S706R/Q00342:R708A/Q00342:INS709AMLGPSLSPGQDPEGGVDYKNIHLEKKYVRRDSGFSSQGVDTYVEMRPVSTSSNDSFSEQDLD/Q00342:DEL711-780/Q00342:L783G/Q00342:N784R/Q00342:V785P/Q00342:T787E/Q00342:F788L/Q00342:E789R/Q00342:C793H/Q00342:A795S/Q00342:Y796S/Q00342:K800Q/Q00342:E803A/Q00342:E806A/Q00342:F807S/Q00342:S809N/Q00342:V811I/Q00342:L815V/Q00342:V822L/Q00342:H824N/Q00342:K826H/Q00342:V828A/Q00342:C831G/Q00342:L840M/Q00342:S841N/Q00342:S844N/Q00342:V846I/Q00342:R848K/Q00342:L863I/Q00342:E865D/Q00342:G866C/Q00342:I867V/Q00342:I870V/Q00342:K871Q/Q00342:V889L/Q00342:P896L/Q00342:D898N/Q00342:A899S/Q00342:N900K): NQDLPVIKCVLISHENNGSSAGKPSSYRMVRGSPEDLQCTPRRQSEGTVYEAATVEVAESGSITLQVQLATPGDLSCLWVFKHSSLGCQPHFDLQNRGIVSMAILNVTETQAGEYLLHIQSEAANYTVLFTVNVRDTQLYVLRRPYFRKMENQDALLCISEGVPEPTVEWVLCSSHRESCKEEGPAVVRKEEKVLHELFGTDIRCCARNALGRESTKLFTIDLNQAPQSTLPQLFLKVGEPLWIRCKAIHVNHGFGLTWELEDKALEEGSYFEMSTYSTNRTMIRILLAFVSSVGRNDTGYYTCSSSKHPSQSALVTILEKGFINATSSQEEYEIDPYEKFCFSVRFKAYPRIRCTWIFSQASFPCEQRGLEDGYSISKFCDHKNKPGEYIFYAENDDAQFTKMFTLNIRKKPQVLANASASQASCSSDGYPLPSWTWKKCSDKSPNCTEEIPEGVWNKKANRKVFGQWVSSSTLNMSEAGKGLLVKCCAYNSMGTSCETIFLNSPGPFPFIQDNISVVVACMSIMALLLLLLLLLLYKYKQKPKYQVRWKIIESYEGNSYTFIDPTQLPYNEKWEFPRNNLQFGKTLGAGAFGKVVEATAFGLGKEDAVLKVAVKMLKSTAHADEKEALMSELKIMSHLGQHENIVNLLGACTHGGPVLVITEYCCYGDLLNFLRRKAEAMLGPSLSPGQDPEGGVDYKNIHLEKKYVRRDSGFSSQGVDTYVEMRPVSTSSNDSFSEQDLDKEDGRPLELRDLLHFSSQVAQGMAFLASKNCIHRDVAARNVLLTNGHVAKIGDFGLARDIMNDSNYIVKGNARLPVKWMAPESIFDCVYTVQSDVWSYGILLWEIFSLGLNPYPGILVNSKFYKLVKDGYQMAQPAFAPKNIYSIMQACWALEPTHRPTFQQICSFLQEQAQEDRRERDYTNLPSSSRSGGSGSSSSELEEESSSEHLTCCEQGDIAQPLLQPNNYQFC
Excerpt: A biological screening assay to search for novel stimulators of the Flt3 receptor was developed using NIH 3T3 cells transfected with expression vectors containing cDNA of murine and human Flt3 and the related Fms receptor. The mFlt3/Fms 3T3 cell line is a 3T3 cell line transfected with nucleic acid encoding a fusion protein consisting of the murine extracellular domain of the Flt3 receptor fused to the transmembrane and intracellular domains of the human Fms (provided by Dr. Ihor Lemischka, Princeton University, Princeton, N.J.). The Stk 3T3 cell line is a 3T3 cell line transfected with the full-length human Flt3 receptor (provided by Dr. Donald Small, Johns Hopkins University, Baltimore, Md.). The human FMS 3T3 cell line is a 3T3 cell line transfected with the full-length human Fms receptor (provided by Dr. Charles Sherr, Saint Jude Children's Research Hospital, Memphis, Tenn. Parent 3T3 cells were purchased from American Type Culture Collection (“ATCC”; Manassas, Va.). Receptor-transfected cells contained Neo resistance genes and were maintained in medium containing 750 µg/ml of G418 (Life Technologies, Rockville, Md.).
To create factor-dependence for receptor-transfected 3T3 cells, growth conditions were compromised to permit only ligands to rescue cells from death. To do this, 3T3 cell lines were assayed in 96 well plates (Becton Dickinson Labware, Lincoln Park, N.J.) containing 3,000 cells in 100 μL of serum-free medium consisting of 10% AIMV (Life Technologies) and 90% DMEM. In each experiment, samples were serially diluted two-fold across rows starting at a 1:10 dilution. Viable cells were quantitated after 3-5 days by XTT (2,3-bis[Methoxy-4-nitro-5sulfophenyl]-2H-tetrazolium-5 carboxanilide inner salt) (Sigma, St. Louis, Mo.) (Roehm et al., supra). Relative activity (units/ml) and specific activity (units/mg) are defined as the reciprocal dilution at which half-maximal stimulation of cells was detected.

[6] = molecular target: T3, full-length human Fms receptor (Homo sapiens, UniProt P07333); assay: Fms 3T3 biological screening assay (XTT); assay type: cell-based
T3 construct: The human FMS 3T3 cell line is a 3T3 cell line transfected with the full-length human Fms receptor; expressed in transfected cells; host or cells: NIH 3T3 (FMS 3T3 cell line, provided by Dr. Charles Sherr)
T3 sequence (P07333 20-972): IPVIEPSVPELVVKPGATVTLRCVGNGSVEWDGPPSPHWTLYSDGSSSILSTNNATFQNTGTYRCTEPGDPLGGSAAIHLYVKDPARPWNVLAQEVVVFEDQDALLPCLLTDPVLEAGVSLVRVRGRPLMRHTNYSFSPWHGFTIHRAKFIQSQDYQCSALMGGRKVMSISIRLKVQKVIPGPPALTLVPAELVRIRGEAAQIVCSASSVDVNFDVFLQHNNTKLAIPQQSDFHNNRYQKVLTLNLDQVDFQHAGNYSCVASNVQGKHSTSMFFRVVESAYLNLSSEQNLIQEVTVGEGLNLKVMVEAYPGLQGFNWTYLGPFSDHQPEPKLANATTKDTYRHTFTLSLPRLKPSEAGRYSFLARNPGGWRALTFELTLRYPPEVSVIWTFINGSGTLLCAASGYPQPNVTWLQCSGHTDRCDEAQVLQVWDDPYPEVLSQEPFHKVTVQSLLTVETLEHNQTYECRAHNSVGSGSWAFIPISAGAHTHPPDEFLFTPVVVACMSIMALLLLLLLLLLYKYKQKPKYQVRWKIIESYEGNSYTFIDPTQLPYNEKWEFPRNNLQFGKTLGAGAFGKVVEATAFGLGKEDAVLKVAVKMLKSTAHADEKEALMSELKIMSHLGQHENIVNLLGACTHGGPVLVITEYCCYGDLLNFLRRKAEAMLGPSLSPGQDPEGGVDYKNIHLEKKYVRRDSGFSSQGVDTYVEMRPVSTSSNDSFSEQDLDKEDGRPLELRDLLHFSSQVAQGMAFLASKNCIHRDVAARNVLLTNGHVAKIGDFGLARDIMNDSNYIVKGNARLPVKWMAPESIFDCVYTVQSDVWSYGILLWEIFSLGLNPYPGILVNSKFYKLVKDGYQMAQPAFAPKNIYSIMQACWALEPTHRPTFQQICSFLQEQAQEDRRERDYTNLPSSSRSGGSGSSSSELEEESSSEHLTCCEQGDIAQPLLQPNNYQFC
Excerpt: A biological screening assay to search for novel stimulators of the Flt3 receptor was developed using NIH 3T3 cells transfected with expression vectors containing cDNA of murine and human Flt3 and the related Fms receptor. The mFlt3/Fms 3T3 cell line is a 3T3 cell line transfected with nucleic acid encoding a fusion protein consisting of the murine extracellular domain of the Flt3 receptor fused to the transmembrane and intracellular domains of the human Fms (provided by Dr. Ihor Lemischka, Princeton University, Princeton, N.J.). The Stk 3T3 cell line is a 3T3 cell line transfected with the full-length human Flt3 receptor (provided by Dr. Donald Small, Johns Hopkins University, Baltimore, Md.). […]
To create factor-dependence for receptor-transfected 3T3 cells, growth conditions were compromised to permit only ligands to rescue cells from death. […] Viable cells were quantitated after 3-5 days by XTT (2,3-bis[Methoxy-4-nitro-5sulfophenyl]-2H-tetrazolium-5 carboxanilide inner salt) (Sigma, St. Louis, Mo.) (Roehm et al., supra). Relative activity (units/ml) and specific activity (units/mg) are defined as the reciprocal dilution at which half-maximal stimulation of cells was detected. […]

## O=c1[nH]cc(F)c(=O)[nH]1 [5-FU, 5-fluorouracil]
[1]
  reduction of bone marrow cellularity: > 90%
[2]
  deaths from a single dose: No mice died

## OC[C@H]1O[C@H](O[C@H]2O[C@H](CO)[C@@H](O)[C@H](O)[C@H]2O)[C@H](O)[C@@H](O)[C@@H]1O [α,α-trehalose]
[3]
  potency relative to mannose: 3.6 fold

B1: M-CSF: Recombinant human M-CSF, ligand of the Fms receptor (protein)
chain: EEVSEYCSHMIGSGHLQSLQRLIDSQMETSCQITFEFVDQEQLKDPVCYLKKAFLLVQDIMEDTMRFRDNTPNAIAIVQLQELSLRLKSCFTKDYEEHDKACVRTFYETPLQLLEKVKNVFNETKNLLDKDWNIFSKNCNNSFAECSSQDVVTKPDCN
[4]
  response of parent untransfected 3T3 cells: Neither the mFlt3/Fms 3T3 cells nor the parent untransfected 3T3 cells responded
[5]
  response of mFlt3/Fms 3T3 cells: Neither the mFlt3/Fms 3T3 cells nor the parent untransfected 3T3 cells responded
[6]
  response of Fms 3T3 cells: responded to M-CSF in a dose-responsive manner
